Like-named read-outs stand apart in the source and are kept apart here.
Tests used:
GLAST = target: T1, GLAST (Rattus norvegicus, UniProt P24942); details: at concentrations below 1 mM; cited from earlier work
T1 sequence (P24942 1-543): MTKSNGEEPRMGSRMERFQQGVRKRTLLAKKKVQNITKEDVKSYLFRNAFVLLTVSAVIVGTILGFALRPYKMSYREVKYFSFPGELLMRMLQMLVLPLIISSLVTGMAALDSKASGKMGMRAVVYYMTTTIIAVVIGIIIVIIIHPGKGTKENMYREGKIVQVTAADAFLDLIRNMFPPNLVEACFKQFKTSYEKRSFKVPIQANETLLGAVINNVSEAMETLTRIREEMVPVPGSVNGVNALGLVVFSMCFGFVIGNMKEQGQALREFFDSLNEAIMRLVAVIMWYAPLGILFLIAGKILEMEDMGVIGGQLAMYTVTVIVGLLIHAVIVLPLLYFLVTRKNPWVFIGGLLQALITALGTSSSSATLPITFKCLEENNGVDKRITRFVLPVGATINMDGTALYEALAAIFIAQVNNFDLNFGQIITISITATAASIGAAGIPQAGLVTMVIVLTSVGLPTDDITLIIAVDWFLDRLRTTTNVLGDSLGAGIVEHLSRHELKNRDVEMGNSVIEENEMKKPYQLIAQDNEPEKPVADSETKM

[1] = test system: glutamate transporters (GLAST and GLT1); assay: [3H]-4MG binding to rat brain membrane homogenates; details: FIG. 5
Description: (§1) Rat brain tissue, either freshly dissected or stored frozed at −20° C. is homogenized in HEPES buffer containing Na^+(5 mM HEPES, 96 mM NaCl, 1.8 mM CaCl2, 1 mM MgCl2 (pH 7.5 at 25° C.)), and membranes are washed twice in the same buffer using standard methods for subcellular fractionation and the preparation of brain membranes. Brain tissue is weighed and homogenized in 15 ml of assay buffer using a Polytron tissue homogenizer (setting 4, 10-15 seconds). […] The homogenate is centrifuged again (as above) and the pellet re-suspended in 20 to 25 volumes of buffer. Membrane homogenates make up 20% of final assay volume. Binding assays are also performed in the above buffer.
(§2) The range of concentrations of the receptor compound (for example, 10 nM-1 mM) is varied dependent on whether all or only a trace of the receptor compound is labeled. Following incubation of the receptor compounds (bound to the transporters) in the presence or absence of test compounds, binding is terminated by rapid filtration through Whatman GF/B filter discs and washing 3 times with buffer using a Brandel cell harvester. Binding is determined by any technique suitable for the label used. For isotope labels, scintillation spectrometry is preferred.
(§3) Forebrain tissue from female Sprague Dawley rats was homogenised in HEPES buffer containing Na^+, and membranes were washed twice in the same buffer. Binding experiments were also performed in this buffer. […] Binding was determined by scintillation spectrometry. A full range of association, dissociation, saturation and inhibition studies was performed over varying incubation times (up to 60 min). Data were analyzed using computer-assisted curve fitting. Values are expressed as mean of at least triplicate determinations and multiple experiments.
(§4) A full range of association, dissociation, saturation and inhibition studies was performed over varying incubation times (up to 60 min). Data were analyzed using computer-assisted curve fitting. Values cited are expressed as mean of at least triplicate determinations and multiple experiments.

[2] = target: T2, glutamate transporters (GLAST and GLT1); assay: [3H]-4MG binding to rat brain membrane homogenates; details: for IC50: read-out: IC50 for displacement of [3H]-4MG binding; for displacement of 4MG binding: at or above 100 μM, FIG. 5
T2 construct: Bmax; other: rat brain membrane homogenates; other: 20 nM [3H]-4MG, 15 minutes at 4° C; KD; association t½
Description: as §1, §2, §3, §4

[3] = Hydrolysis of prodrug to the acid form; assay type: in vitro ADME; details: prodrug ester cleavage
From the text: The ester, carbonate, and amine bond in any prodrug forms of compounds identified by the disclosed method can be readily cleaved in vivo. Therefore, prodrug compositions can be hydrolyzed to the corresponding acids form in plasma.

[4] = 20 nM [3H]-4MG, 15 minutes at 4° C., FIG. 3, FIG. 4

For CC(CC(=O)O)C(N)C(=O)O (racemic) [3MG, (±)-threo-3-methylglutamate], the “binding to GLAST” value (GLAST) is listed as “do not bind”.

For NCCCC(=O)O [GABA, γ-aminobutyric acid], the “effect on 4MG and/or D-aspartate binding to GluTs” value (“effect” for short) [1] was “failed to affect”.

In the case of NCC(=O)O [GLY, glycine], the “effect” value [1] is reported as “failed to affect”.

N[C@H](C(=O)O)[C@H]1C[C@H]1C(=O)O [CCG-III, (2S,3S,4R)-2-(carboxycyclopropyl)glycine] showed an IC50 [2, 4] of 1.2 µM.

With N[C@@H](Cn1cc(F)c(=O)[nH]c1=O)C(=O)O [FW, fluorowillardiine] the “displacement of 4MG binding” value [2] was “failed to significantly displace”.

C[C@H](C[C@H](N)C(=O)O)C(=O)O [4MG, (2S,4R)-4-methyl glutamic acid] showed a Kd ([2]; rat brain membrane homogenates, FIG. 1) of 5.4 µM.

In the case of O=C(O)[C@H]1CN[C@H](C(=O)O)C1 [PDC, L-trans-pyrrolidine-2,4-dicarboxylate], the IC50 [2, 4] is reported as 2.9 µM.

With CN[C@H](CC(=O)O)C(=O)O [NMDA, N-methyl-D-aspartate] the “displacement of 4MG binding” value [2] was “failed to significantly displace”.

Compound N[C@@H](CC(=O)O)C(=O)O [L-aspartate] has an IC50 [2, 4] of 7.5 µM.

In the case of CC(C)[C@H]1CN[C@H](C(=O)O)[C@H]1CC(=O)O [DHK, L-Dihydrokainate], the “binding to GLAST” value (GLAST) is given as “do not bind”.

For N[C@@H](Cn1cc(I)c(=O)[nH]c1=O)C(=O)O [IW, iodowillardine], the “effect” value [1] was “failed to affect”.

For Cc1onc(O)c1CC(N)C(=O)O (stereo not drawn) [AMPA, α-amino-3-hydroxy-5-methyl-4-isoxazolepropionate], the “displacement of 4MG binding” value [2] was “failed to significantly displace”.

In the case of CC(C)(C)c1o[nH]c(=O)c1CC(N)C(=O)O (stereo not shown) [ATPA], the “effect” value [1] is reported as “failed to affect”.

In the case of COC(=O)[C@H](C)C[C@H](N)C(=O)OC [compound 2, (2S,4R)-4-methyl glutamic acid dimethyl ester], the “hydrolysis to (2S,4R)-4-methyl glutamic acid (1)” value [3] is reported as “readily hydrolyzed”.

With N[C@@H](COS(=O)(=O)O)C(=O)O [SOS, L-serine-O-sulphate] the IC50 [2] was 40 µM.

In the case of C=C(C)[C@H]1CN[C@H](C(=O)O)[C@H]1CC(=O)O [KA, kainate], the “binding to GLAST” value (GLAST) is given as “do not bind”.
